Results reported in PMC11604048, “Constrained TACC3 peptidomimetics for a non-canonical protein–protein interface elucidate allosteric communication in Aurora-A kinase” (Chemical Science, 2024).
Where two headings read alike, the source gives them in different places. *1 amine or outer side, *2 acyl side, *3 side chain or, on linkers, in order; H or OH if unused. Where a SMILES comes first, the peptide text is derived from it. Bridges are numbered along the chain shown (N, C = ends). [ ]: non-standard residue; d: D form. Biphenyl(4,4'-CH2)2 = c1cc(-c2ccc(C[*:2])cc2)ccc1C[*:1]; Maleimide(3,4-diyl) = O=C1NC(=O)C([*:2])=C1[*:1]; Pro(trans-4-F) = O=C(O)[C@@H]1C[C@@H](F)CN1; Phe(4-Br) = N[C@@H](Cc1ccc(Br)cc1)C(=O)O; Nle = CCCC[C@H](N)C(=O)O

Target: T1, Aurora-A122-403-C290A/C393A (Homo sapiens, UniProt O14965, C290A/C393A)
T1 construct: Human Aurora-A kinase domain 122-403 wild-type or C290A/ C393A mutant; His tag (pET30TEV vector) (N, cleaved yes); made in house; host or cells: E. coli RIL, co-expressed with lambda phosphatase (Aurora-A); tracer by solid phase synthesis
T1 sequence (O14965 122-403 C290A/C393A): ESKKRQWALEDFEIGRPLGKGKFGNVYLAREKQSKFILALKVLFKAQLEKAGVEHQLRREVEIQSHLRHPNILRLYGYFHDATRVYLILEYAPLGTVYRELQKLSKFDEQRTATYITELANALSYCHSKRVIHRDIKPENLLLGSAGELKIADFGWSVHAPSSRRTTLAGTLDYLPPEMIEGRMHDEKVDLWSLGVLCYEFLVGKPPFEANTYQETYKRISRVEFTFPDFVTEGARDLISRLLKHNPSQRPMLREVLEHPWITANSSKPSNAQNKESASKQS
Assay: Competition FA assay against FAM-Ahx-TACC3 522-536 tracer
Assay type: binding
Method: Once completed, the mixtures were transferred into SPPS fritted reaction vessels and washed with H2O (5X, 10 mL, 2 min), DMF (5X, 5mL, 2 min) and DCM (5X, 5 mL, 2 min). The clean resins were dried under vacuum and the cyclic peptides cleaved from the resin following the general procedures described in previous sections. After Et2O precipitation, the crude materials were freeze-dried and redissolved in H2O/MeCN/TFA 90/10/0.1% v/v for preparative HPLC purification.
All disulfide peptide variants (ox) were produced in situ from their free-thiol solid precursors. For this, 2 mg of the pure peptide materials were dissolved in aqueous DMSO 33% v/v to a 10 mM concentration and were left open to air oxidation at room temperature overnight. […]
the peptides were employed for FA competition assays and IC50 evaluation without further additional […]
Fluorescence anisotropy (FA) assays – General information.
All assays were performed using 384-well plates(Greiner Bio-one, UK). […]
produced as described previously.11 All samples were prepared in 25 mM Tris,150 mM NaCl, 5 mM MgCl2, pH= 7.5, unless otherwise stated, and tested in triplicate using an EnVisionTM 2103 MultiLabel plate reader (PerkinElmer; Waltham, MA, USA).The parameters were set as follows: Excitation wavelength = 480 nm (30 nm bandwidth) and emission wavelength = 535 nm (30 nm bandwidth). Measured data were processed and analysed as previously described.12 Specifically, the perpendicular intensity (P) and parallel intensity (S) were subtracted by the control values and used for calculations of intensity and anisotropy using the following Equations 1, 2, 3, 4, and 5:
I= (2PG) + S Eq. (SI − 5)
r = (S − PG) Eq. (SI − 6)
L = r − r௠௜௡ Eq. (SI − 7)
y = (k + x + [FL]) − ඥ(k + x + [FL]2 − 4 ∗ x ∗ [FL]) Eq. (SI − 8)
y = r + r௠௜௡ − r௠௔௫ Eq. (SI − 9)
Where I = total intensity; P = perpendicular intensity; S = parallel intensity; G = instrument factor; r = anisotropy; Lb = ligand bound fraction; λ = change in intensity between bound and unbound states which […]
FA direct binding assays. […]
starting from 700 μM, diluted over 24 points in a 1/2 regime using the FAM-Ahx-labeled peptides at a final fixed concentration of 50 nM per well.
FA competition assays were performed using the same plates and buffer as described above, with the initial […]
14 points in a 1/2 regime. […]
after 4 h of incubation to enable appropriate sample equilibration. To prevent sample oxidation, when sulfhydryl peptides were analyzed DTT was added to the buffer (5 mM). In competition mode, the average anisotropy and the average standard deviation of the values derived from equation SI-6 were calculated and fit to a sigmoidal logistic model (equation SI-9) using Origin 2021. When using peptides for which full […]
For consistency, all the data […]
indicating the corresponding SD. […]

[1] = as E1, oxidised (disulfide) species made in situ from 10 mM stock in aqueous DMSO 33% v/v, air, overnight, WT control (+DMSO) given the same DMSO incubation, mean ± SD, n = 3, read-out: IC50 (ox)

CC(=O)N[C@@H](CCC(=O)O)C(=O)N[C@@H](CCC(=O)O)C(=O)N[C@@H](CO)C(=O)N[C@@H](Cc1ccccc1)C(=O)N[C@@H](CCCNC(=N)N)C(=O)N[C@H]1CSSC[C@@H](C(=O)N[C@H](C(=O)N[C@@H](CC(C)C)C(=O)NCC(=O)N[C@H](C(=O)NCC(=O)N[C@@H](C)C(N)=O)[C@@H](C)O)C(C)C)NC(=O)[C@H](C)NC(=O)[C@@H]2CCCN2C1=O [TACC3 522-536 D527C/E530C (ox)] (Ac-EESFRCPACVLGTGA-NH2; disulfide 6-9)
IC50 [1]: ≥ 500 µM

CC(=O)N[C@@H](CCC(=O)O)C(=O)N[C@@H](CCC(=O)O)C(=O)N[C@@H](CO)C(=O)N[C@@H](Cc1ccccc1)C(=O)N[C@@H](CCCNC(=N)N)C(=O)N[C@@H](CC(=O)O)C(=O)N1CCC[C@H]1C(=O)N[C@@H](C)C(=O)N[C@@H](CCC(=O)O)C(=O)N[C@H](C(=O)N[C@@H](CC(C)C)C(=O)N[C@@H](CS)C(=O)N[C@H](C(=O)NCC(=O)N[C@@H](CS)C(N)=O)[C@@H](C)O)C(C)C [TACC3 522-536 G533C/A536C (red)] (Ac-EESFRDPAEVLCTGC-NH2)
IC50 (as E1, free-sulfhydryl (reduced) species, DTT 5 mM in buffer, WT control (+DTT), mean ± SD, n = 3, SD, read-out: IC50 (red)): 80 ± 3 µM

CC(=O)N[C@@H](CCC(=O)O)C(=O)N[C@H]1CSC2=C(SC[C@@H](C(=O)N[C@@H](CC(=O)O)C(=O)N3CCC[C@H]3C(=O)N[C@@H](C)C(=O)N[C@@H](CCC(=O)O)C(=O)N[C@H](C(=O)N[C@@H](CC(C)C)C(=O)NCC(=O)N[C@H](C(=O)NCC(=O)N[C@@H](C)C(N)=O)[C@@H](C)O)C(C)C)NC(=O)[C@H](Cc3ccccc3)NC(=O)[C@H](CO)NC1=O)C(=O)NC2=O [TACC3 522-536 E523C/R526C (mal)] (Ac-ECSFCDPAEVLGTGA-NH2; linker 2-5 via Maleimide(3,4-diyl))
IC50 (as E1, Table S3 (mal): maleimide-constrained species, WT value is an individual replica control assay, mean ± SD, n = 3, SD, read-out: IC50 (mal)): 376 ± 28 µM

CC(=O)N[C@@H](CCC(=O)O)C(=O)N[C@@H](CCC(=O)O)C(=O)N[C@@H](CO)C(=O)N[C@@H](Cc1ccc(Cl)cc1)C(=O)N[C@@H](CCCNC(=N)N)C(=O)N[C@@H](CC(=O)O)C(=O)N1CCC[C@H]1C(=O)N[C@@H](C)C(=O)N[C@@H](CCC(=O)O)C(=O)N[C@H](C(=O)N[C@@H](CC(C)C)C(=O)NCC(=O)N[C@H](C(=O)NCC(=O)N[C@@H](C)C(N)=O)[C@@H](C)O)C(C)C [TACC3 522-536_(4-Cl)525F]
IC50 (SD, read-out: IC50): 46 ± 8 µM

CC(=O)N[C@@H](CC(C)C)C(=O)N[C@@H](CCC(=O)O)C(=O)N[C@H]1CSCc2ccc(cc2)-c2ccc(cc2)CSC[C@@H](C(=O)N[C@@H](CC(=O)O)C(=O)N2C[C@H](F)C[C@H]2C(=O)N[C@@H](C)C(=O)N[C@@H](CCC(=O)O)C(=O)N[C@H](C(=O)N[C@@H](CC(C)C)C(N)=O)C(C)C)NC(=O)[C@H](Cc2ccc(Br)cc2)NC(=O)[C@H](CO)NC(=O)[C@H](CCC(=O)O)NC(=O)[C@H](CCC(=O)O)NC(=O)[C@H](CCCCN)NC1=O [TACC3 518-532-L/R-Bph-BrF/fP] (Ac-LECKEES[Phe(4-Br)]CD[Pro(trans-4-F)]AEVL-NH2; linker 3-9 via Biphenyl(4,4'-CH2)2)
IC50 (SD, read-out: IC50): 22 ± 1 µM

CC(=O)N[C@@H](CCC(=O)O)C(=O)N[C@@H](CCC(=O)O)C(=O)N[C@@H](CO)C(=O)N[C@@H](Cc1ccccc1)C(=O)N[C@@H](CCCNC(=N)N)C(=O)N[C@@H](CC(=O)O)C(=O)N1CCC[C@H]1C(=O)N[C@@H](C)C(=O)N[C@@H](CCC(=O)O)C(=O)N[C@H](C(=O)N[C@H]1CSSC[C@@H](C(=O)N[C@@H](C)C(N)=O)NC(=O)[C@H]([C@@H](C)O)NC(=O)CNC1=O)C(C)C [TACC3 522-536 L532C/G535C (ox)] (Ac-EESFRDPAEVCGTCA-NH2; disulfide 11-14)
IC50 [1]: ≥ 500 µM

CC(=O)N[C@H]1CSCc2ccc(cc2)-c2ccc(cc2)CSC[C@@H](C(=O)N[C@@H](C)C(=O)N[C@@H](CCC(=O)O)C(=O)N[C@H](C(=O)N[C@@H](CC(C)C)C(=O)NCC(=O)N[C@H](C(=O)NCC(=O)N[C@@H](C)C(N)=O)[C@@H](C)O)C(C)C)NC(=O)[C@H](CC(=O)O)NC(=O)[C@H](CCCNC(=N)N)NC(=O)[C@H](Cc2ccccc2)NC(=O)[C@H](CO)NC(=O)[C@H](CCC(=O)O)NC1=O [TACC3 522-536 E522C/P528C (Bph)] (Ac-CESFRDCAEVLGTGA-NH2; linker 1-7 via Biphenyl(4,4'-CH2)2)
IC50 (as E1, Table S3 column (Bph): biphenyl-constrained species, WT value is an individual replica control assay, mean ± SD, n = 3, SD, read-out: IC50 (Bph)): 280 ± 32 µM

CC(=O)N[C@@H](CCC(=O)O)C(=O)N[C@@H](CCC(=O)O)C(=O)N[C@@H](CO)C(=O)N[C@@H](Cc1ccc(I)cc1)C(=O)N[C@@H](CCCNC(=N)N)C(=O)N[C@@H](CC(=O)O)C(=O)N1CCC[C@H]1C(=O)N[C@@H](C)C(=O)N[C@@H](CCC(=O)O)C(=O)N[C@H](C(=O)N[C@@H](CC(C)C)C(=O)NCC(=O)N[C@H](C(=O)NCC(=O)N[C@@H](C)C(N)=O)[C@@H](C)O)C(C)C [TACC3 522-536_(4-I)525F]
IC50 (SD, read-out: IC50): 34 ± 3 µM

Ac-EESYRDPAEVLGTGA-NH2 [TACC3 522-536_F525Y]
IC50 (read-out: IC50): ≥ 500 µM

CC(=O)N[C@@H](CCC(=O)O)C(=O)N[C@@H](CCC(=O)O)C(=O)N[C@@H](CO)C(=O)N[C@@H](Cc1ccccc1)C(=O)N[C@@H](CCCNC(=N)N)C(=O)N[C@@H](CC(=O)O)C(=O)N[C@H]1CSSC[C@@H](C(=O)N[C@@H](CC(C)C)C(=O)NCC(=O)N[C@H](C(=O)NCC(=O)N[C@@H](C)C(N)=O)[C@@H](C)O)NC(=O)[C@H](CCC(=O)O)NC(=O)[C@H](C)NC1=O [TACC3 522-536 P528C/V531C (ox)] (Ac-EESFRDCAECLGTGA-NH2; disulfide 7-10)
IC50 [1]: ≥ 500 µM

CC(=O)N[C@@H](CCC(=O)O)C(=O)N[C@@H](CCC(=O)O)C(=O)N[C@@H](CO)C(=O)N[C@@H](Cc1ccc(F)cc1)C(=O)N[C@@H](CCCNC(=N)N)C(=O)N[C@@H](CC(=O)O)C(=O)N1CCC[C@H]1C(=O)N[C@@H](C)C(=O)N[C@@H](CCC(=O)O)C(=O)N[C@H](C(=O)N[C@@H](CC(C)C)C(=O)NCC(=O)N[C@H](C(=O)NCC(=O)N[C@@H](C)C(N)=O)[C@@H](C)O)C(C)C [TACC3 522-536_(4-F)525F]
IC50 (SD, read-out: IC50): 184 ± 22 µM

Ac-LECKEESFCDPAEVL-NH2 (disulfide 3-9 (inferred)) [TACC3 518-532 L520C/R526C (ox), disulfide form of the Cys variant]
IC50 [1]: ≥ 200 µM

CC(=O)N[C@@H](CCC(=O)O)C(=O)N[C@@H](CCC(=O)O)C(=O)N[C@@H](CO)C(=O)N[C@@H](Cc1ccccc1)C(=O)N[C@@H](CCCNC(=N)N)C(=O)N[C@@H](CC(=O)O)C(=O)N[C@H]1CSC2=C(SC[C@@H](C(=O)N[C@@H](CC(C)C)C(=O)NCC(=O)N[C@H](C(=O)NCC(=O)N[C@@H](C)C(N)=O)[C@@H](C)O)NC(=O)[C@H](CCC(=O)O)NC(=O)[C@H](C)NC1=O)C(=O)NC2=O [TACC3 522-536 P528C/V531C (mal)] (Ac-EESFRDCAECLGTGA-NH2; linker 7-10 via Maleimide(3,4-diyl) (inferred))
IC50 (as E1, Table S3 (mal): maleimide-constrained species, WT value is an individual replica control assay, mean ± SD, n = 3, read-out: IC50 (mal)): ≥ 500 µM

CCCC[C@H](NC(=O)[C@H](CCC(=O)O)NC(=O)[C@H](C)NC(=O)[C@@H]1CCCN1C(=O)[C@H](CC(=O)O)NC(=O)[C@H](CCCNC(=N)N)NC(=O)[C@H](Cc1ccccc1)NC(=O)[C@H](CO)NC(=O)[C@H](CCC(=O)O)NC(=O)[C@H](CCC(=O)O)NC(C)=O)C(=O)N[C@@H](CC(C)C)C(=O)NCC(=O)N[C@H](C(=O)NCC(=O)N[C@@H](C)C(N)=O)[C@@H](C)O [TACC3 522-536_V531nL] (Ac-EESFRDPAE[Nle]LGTGA-NH2)
IC50 (read-out: IC50): ≥ 300 µM
